# Results from patent publication US10561712B2, “Treatment of cancer and inhibition of metastasis using hemoglobin beta subunit” (UNIVERSITY OF MARYLAND, BALTIMORE, priority 2014, dated 2020).
# What was measured:
# [1] = system: normal kidney cell line 293A; test: Viability of normal cells, 293A; format: cell-based; settings: data not shown
# Text: The influence of HBB on the viability of the normal lung-residing cell lines HPEC (Human pulmonary endothelial cells) and HLMEC (Human lung microvascular endothelial cells) and on the normal kidney cell line 293T and 293A was examined as well.
# [2] = system: Cyclin D1 expression in MacroNB cells; test: Cyclin D1 expression (western blot), MacroNB cells; format: cell-based; settings: incubated with human HBB, 48 hr; in reference to beta-tubulin; FIG. 4C
# Procedure: (§1) Lysates of neuroblastoma cells and of mouse organs were resolved on SDS-PAGE after the addition of Laemmli sample buffer, and transferred onto nitrocellulose membrane. The total amount of protein in the lanes was assessed by Ponceau staining prior to blocking of the membrane. The membrane was blocked at room temperature with 3% BSA (Sigma-Aldrich) diluted in TBS-Tween (TBST) for 1 hr. For detection of the target proteins, membranes were incubated with relevant primary antibodies (see “Antibodies”), then washed 3 times×5 min with TBSTX1 and incubated with suitable HRP-conjugated secondary antibodies (see “Antibodies”). Membranes were washed again 5 times×3 min with TBSTX1. […]
# (§2) Neuroblastoma cells (5×10^6) were plated and after 24 hr cells were incubated for 48 hr with human HBB diluted in starvation medium (RPMI 5% BSA) to a concentration of 10 μg/ml. […] Cyclin D1 expression was calculated in reference to β-tubulin expression in the lane as measured by densitometry using Scion Image software (Scion).
# (§3) Whole cell lysates of MicroNB and MacroNB cells incubated with human HBB were subjected to western blot analysis and immunostaining. […] Cyclin D1 expression was calculated in reference to beta-tubulin. […] Significance was evaluated using Student's t-test for each analysis after incubation with HBB compared to incubation with control media.
# [3] = system: Cyclin D1 expression in MicroNB cells; test: Cyclin D1 expression (western blot), MicroNB cells; format: cell-based; settings: incubated with human HBB, 48 hr; in reference to beta-tubulin; FIG. 4C
# Procedure: as §1, §2, §3
# MicroNB cells [4] = test: Cell cycle analysis by flow cytometry, MicroNB cells; format: cell-based, human; settings: HBB (1 μg) for 48 hr
# Procedure: Neuroblastoma cells (5×10^5) were plated and after 24 hr, cells were incubated for 48 hr with HBB diluted in starvation medium (RPMI 5% BSA) to a concentration of 10 μg/ml. Neuroblastoma cells incubated with starvation medium containing BSA alone served as control. Cells were pelleted, washed and resuspended in 0.5 ml PBSX1, containing 0.05 ml propidium iodide (PI) (P-4170, Sigma) (50 μg/ml), and 0.05 ml Triton X-100 (Sigma-Aldrich). Flow cytometry analysis was performed using Becton Dickinson FACSort and CellQuest software (Becton Dickinson, Mountain View, Calif.).
# The cells were also subjected to measurement of cellular DNA content and cell cycle analysis using flow cytometry. Incubation with human HBB elevated the amount of MicroNB and MacroNB cells in the sub GO phase, by 18% and 11%, respectively (data not shown).
# [5] = system: ERK1/2 phosphorylation in MicroNB cells; test: ERK1/2 phosphorylation (western blot), MicroNB cells; format: cell-based, human; settings: HBB (1 μg) for 48 hr; in reference to total ERK2; FIG. 4A
# Procedure: Lysates of neuroblastoma cells and of mouse organs were resolved on SDS-PAGE after the addition of Laemmli sample buffer, and transferred onto nitrocellulose membrane. The total amount of protein in the lanes was assessed by Ponceau staining prior to blocking of the membrane. The membrane was blocked at room temperature with 3% BSA (Sigma-Aldrich) diluted in TBS-Tween (TBST) for 1 hr. For detection of the target proteins, membranes were incubated with relevant primary antibodies (see “Antibodies”), then washed 3 times×5 min with TBSTX1 and incubated with suitable HRP-conjugated secondary antibodies (see “Antibodies”). Membranes were washed again 5 times×3 min with TBSTX1. The bands were visualized by chemiluminescence-ECL reactions and autoradiography by exposure to Fuji film. The amount of the relevant protein in the lanes was estimated by densitometry using Scion Image software (Scion, Frederick, Md., USA).
# Neuroblastoma cells (5×10^6) were plated and after 24 hr the growth medium was replaced with starvation medium (RPMI 0.5% FCS) for 24 hr. […] ERK1/2 phosphorylation was calculated in reference to total ERK2 protein, p38 and TAK1 phosphorylation was calculated in reference to total p38 and TAK1, respectively, as measured by densitometry using Scion Image software (Scion). […]
# [6] = system: MCF-7 breast carcinoma cells; test: Viability of cancerous cell lines, MCF-7; settings: MTS-based assay; FIG. 3E
# Procedure: (§4) Neuroblastoma cells were seeded (3×10^4 per well) in a 96-well flat-bottomed tissue culture plate. After an incubation of 24 hr, cells were washed and incubated with the relevant factors (detailed in the following sections) diluted in starvation medium (RPMI-1640 containing 5% bovine serum albumin (BSA); Biological Industries, Kibbutz Beit Haemek, Israel; Sigma-Aldrich). Cell viability under normal conditions (starvation medium containing BSA) or after incubation with the relevant factors was monitored after 72 hr using an XTT (XTT cell proliferation kit; Biological Industries) or MTS-based (CellTiter 96® AQueous One Solution Cell Proliferation Assay; Promega) viability assays according to manufacturer instructions. Cells were also counted using the trypan-blue exclusion assay to verify the results obtained by XTT and MTS-based viability assays.
# When incubated with the highest amount of HBB (100 μg), the viability of the following cell lines was inhibited: the breast cancer cell lines T47D and MCF-7, the prostate cancer cell line 22RVi, the cervical cancer cell line Hela, and the melanoma cell lines RALL and RKTJ.
# MicroNB cells [7] = test: Trypan blue exclusion assay, MicroNB cells; format: cell-based, human; settings: incubation with HBB, results not shown
# Procedure: as §4
# The HBB-mediated inhibitory activity was dose dependent (results not shown).
substance,measurement,setting,value
"HBB: beta subunit of human hemoglobin, 147 amino acids, SEQ ID NO:2, HPLC-purified from native human hemoglobin",influence on the viability of normal cells,[1],did not influence the viability
same,Cyclin-D1 expression in MacroNB cells,[2],significant decline
same,Cyclin-D1 expression in MicroNB cells,[3],significant decline
same,elevation of the amount of MicroNB cells in G0-G1 phase,MicroNB cells [4]; FIG. 4B,59%
same,elevation of the amount of MicroNB cells in the sub G0 phase,MicroNB cells [4]; data not shown,18%
same,ERK phosphorylation in MicroNB cells,[5],decreased
same,influence on viability of MCF-7 breast carcinoma cells (in words),[6],inhibits the viability
same,non-viable MicroNB cells following incubation,MicroNB cells [7],16%
